Laboratory results published in patent US12077503B2, “Substituted cyclic amides and their use as herbicides” (FMC CORPORATION, priority 2015, dated 2024).

What was measured:
Type in all cases: in vivo
[1] = tested on: sedge, umbrella (small-flower umbrella sedge, Cyperus difformis); assay: Test B flooded paddy test; conditions: Cyperus difformis, 360 h, Flood, 250 g ai/ha; visually evaluated after 13 to 15 d; read-out: Plant response rating, Sedge, Umbrella (0 to 100 scale where 0 is no effect and 100 is complete control)
Method in brief: (§1)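 Percent control, visually estimated after 13–15 d in the greenhouse on a 0–100 basis, compares treated pots with untreated ones; compound was put into paddy water 3 cm above the soil when plants had two leaves.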

[2] = tested on: ducksalad (Heteranthera limosa); assay: Test B flooded paddy test; conditions: Heteranthera limosa, 360 h, Flood, 250 g ai/ha; visually evaluated after 13 to 15 d; read-out: Plant response rating, Ducksalad (0 to 100 scale where 0 is no effect and 100 is complete control)
Method in brief: as §1

rice (Oryra sativa) = assay: Test B flooded paddy test; conditions: Oryza sativa, 360 h, Flood, 250 g ai/ha; visually evaluated after 13 to 15 d; read-out: Plant response rating, Rice (0 to 100 scale where 0 is no effect and 100 is complete control)
Method in brief: as §1

[3] = tested on: barnyardgrass (Echinochloa crus-galli); assay: Test B flooded paddy test; conditions: Echinochloa crus-galli, 360 h, Flood, 250 g ai/ha; visually evaluated after 13 to 15 d; read-out: Plant response rating, Barnyardgrass (0 to 100 scale where 0 is no effect and 100 is complete control)
Method in brief: as §1

[4] = tested on: ragweed (common ragweed, Ambrosia elatior); assay: Test A postemergence; conditions: Ambrosia artemisiifolia, post-emergence, 240 h, Postemergence
Method in brief: (§2)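 Visual injury scores from 0, no effect, to 100, complete control, were assigned versus untreated controls roughly 10 d after treatment in the greenhouse. Test chemicals, formulated with surfactant in a non-phytotoxic solvent, were applied to planted seeds as a preemergence soil spray or postemergence to one- to two-leaf plants 2 to 10 cm tall, in loam–sand soil.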

Kochia (Kochia scoparia) [5] = assay: Test A postemergence; conditions: Bassia scoparia, post-emergence, 240 h, Postemergence
Method in brief: as §2

[6] = tested on: pigweed (Amaranthus retroflexus); assay: Test A postemergence; conditions: Amaranthus retroflexus, post-emergence, 240 h, Postemergence
Method in brief: as §2

[7] = tested on: ryegrass, Italian (Italian ryegrass, Lolium multiflorum); assay: Test A postemergence; conditions: Lolium multiflorum, post-emergence, 240 h, Postemergence
Method in brief: as §2

[8] = tested on: wheat (Triticum aestivum); assay: Test A postemergence; conditions: Triticum aestivum, post-emergence, 240 h, Postemergence
Method in brief: as §2

[9] = tested on: giant foxtail (Setaria faberii); assay: Test A postemergence; conditions: Setaria faberi, post-emergence, 240 h, Postemergence
Method in brief: as §2

[10] = tested on: blackgrass (Alopecurus myosuroides); assay: Test A postemergence; conditions: Alopecurus myosuroides, post-emergence, 240 h, Postemergence
Method in brief: as §2

[11] = tested on: Galium (catchweed bedstraw, Galium aparine); assay: Test A postemergence; conditions: Galium, post-emergence, 240 h, Postemergence
Method in brief: as §2

corn (Zea mays) = assay: Test A postemergence; conditions: Zea mays, post-emergence, 240 h, Postemergence
Method in brief: as §2

[12] = tested on: barnyardgrass (Echinochloa crus-galli); assay: Test A postemergence; conditions: Echinochloa crus-galli, post-emergence, 240 h, Postemergence
Method in brief: as §2

[13] = tested on: ragweed (common ragweed, Ambrosia elatior); assay: Test A preemergence; conditions: Ambrosia artemisiifolia, pre-emergence, 240 h, Preemergence
Method in brief: as §2

Kochia (Kochia scoparia) [14] = assay: Test A preemergence; conditions: Bassia scoparia, pre-emergence, 240 h, Preemergence
Method in brief: as §2

[15] = tested on: pigweed (Amaranthus retroflexus); assay: Test A preemergence; conditions: Amaranthus retroflexus, pre-emergence, 240 h, Preemergence
[16] = tested on: ryegrass, Italian (Italian ryegrass, Lolium multiflorum); assay: Test A preemergence; conditions: Lolium multiflorum, pre-emergence, 240 h, Preemergence
Method in brief: as §2

[17] = tested on: giant foxtail (Setaria faberii); assay: Test A preemergence; conditions: Setaria faberi, pre-emergence, 240 h, Preemergence
Method in brief: as §2

[18] = tested on: barnyardgrass (Echinochloa crus-galli); assay: Test A preemergence; conditions: Echinochloa crus-galli, pre-emergence, 240 h, Preemergence
Method in brief: as §2

CN1C[C@H](c2ccc(C(F)(F)F)cc2)[C@@H](C(=O)Nc2cccc(F)n2)C1=O [Compound 1400]
pest or weed control at 250 g/ha [1]: 0% | pest or weed control at 250 g/ha [2]: 100% | pest or weed control at 250 g/ha (rice (Oryra sativa)): 0% | pest or weed control at 250 g/ha [3]: 80% | pest or weed control at 31 g/ha ([4]; 31 g ai/ha, 0 is no effect, 100 is complete control, read-out: Ragweed plant response rating (0 to 100 scale)): 0% | pest or weed control at 125 g/ha ([4]; 125 g ai/ha, visual injury after approx. 10 d, 0 to 100 scale, 0 no effect, 100 complete control, read-out: Plant response rating, Ragweed): 50% | pest or weed control at 31 g/ha (Kochia (Kochia scoparia) [5]; 31 g ai/ha, 0 is no effect, 100 is complete control, read-out: Kochia plant response rating (0 to 100 scale)): 30% | pest or weed control at 125 g/ha (Kochia (Kochia scoparia) [5]; 125 g ai/ha, visual injury after approx. 10 d, 0 to 100 scale, 0 no effect, 100 complete control, read-out: Plant response rating, Kochia): 70% | pest or weed control at 31 g/ha ([6]; 31 g ai/ha, 0 is no effect, 100 is complete control, read-out: Pigweed plant response rating (0 to 100 scale)): 50% | pest or weed control at 125 g/ha ([6]; 125 g ai/ha, visual injury after approx. 10 d, 0 to 100 scale, 0 no effect, 100 complete control, read-out: Plant response rating, Pigweed): 60% | pest or weed control at 31 g/ha ([7]; 31 g ai/ha, 0 is no effect, 100 is complete control, read-out: Ryegrass, Italian plant response rating (0 to 100 scale)): 30% | pest or weed control at 125 g/ha ([7]; 125 g ai/ha, visual injury after approx. 10 d, 0 to 100 scale, 0 no effect, 100 complete control, read-out: Plant response rating, Ryegrass, Italian): 50% | plant injury at 31 g/ha ([8]; 31 g ai/ha, 0 is no effect, 100 is complete control, read-out: Wheat plant response rating (0 to 100 scale)): 0% | plant injury at 125 g/ha ([8]; 125 g ai/ha, visual injury after approx. 10 d, 0 to 100 scale, 0 no effect, 100 complete control, read-out: Plant response rating, Wheat): 60% | pest or weed control at 31 g/ha ([9]; 31 g ai/ha, 0 is no effect, 100 is complete control, read-out: Foxtail, Giant plant response rating (0 to 100 scale)): 70% | pest or weed control at 125 g/ha ([9]; 125 g ai/ha, visual injury after approx. 10 d, 0 to 100 scale, 0 no effect, 100 complete control, read-out: Plant response rating, Foxtail, Giant): 90% | pest or weed control at 31 g/ha ([10]; 31 g ai/ha, 0 is no effect, 100 is complete control, read-out: Blackgrass plant response rating (0 to 100 scale)): 30% | pest or weed control at 125 g/ha ([10]; 125 g ai/ha, visual injury after approx. 10 d, 0 to 100 scale, 0 no effect, 100 complete control, read-out: Plant response rating, Blackgrass): 70% | pest or weed control at 31 g/ha ([11]; 31 g ai/ha, 0 is no effect, 100 is complete control, read-out: Galium plant response rating (0 to 100 scale)): 20% | pest or weed control at 125 g/ha ([11]; 125 g ai/ha, visual injury after approx. 10 d, 0 to 100 scale, 0 no effect, 100 complete control, read-out: Plant response rating, Galium): 70% | plant injury at 31 g/ha (corn (Zea mays); 31 g ai/ha, 0 is no effect, 100 is complete control, read-out: Corn plant response rating (0 to 100 scale)): 20% | Corn plant response rating (crop injury, 0 = no effect, 100 = complete kill) at 125 g/ha (corn (Zea mays); 125 g ai/ha, visual injury after approx. 10 d, 0 to 100 scale, 0 no effect, 100 complete control): 40% | pest or weed control at 31 g/ha ([12]; 31 g ai/ha, 0 is no effect, 100 is complete control, read-out: Barnyardgrass plant response rating (0 to 100 scale)): 70% | pest or weed control at 125 g/ha ([12]; 125 g ai/ha, visual injury after approx. 10 d, 0 to 100 scale, 0 no effect, 100 complete control, read-out: Plant response rating, Barnyardgrass): 90% | pest or weed control at 31 g/ha ([13]; 31 g ai/ha, 0 to 100 scale where 0 is no effect and 100 is complete control, read-out: Ragweed plant response rating): 0% | pest or weed control at 125 g/ha ([13]; 125 g ai/ha, 0 to 100 scale (0 no effect, 100 complete control), read-out: Plant response rating, Ragweed): 70% | pest or weed control at 31 g/ha (Kochia (Kochia scoparia) [14]; 31 g ai/ha, 0 to 100 scale where 0 is no effect and 100 is complete control, read-out: Kochia plant response rating): 60% | pest or weed control at 125 g/ha (Kochia (Kochia scoparia) [14]; 125 g ai/ha, 0 to 100 scale (0 no effect, 100 complete control), read-out: Plant response rating, Kochia): 70% | pest or weed control at 31 g/ha ([15]; 31 g ai/ha, 0 to 100 scale where 0 is no effect and 100 is complete control, read-out: Pigweed plant response rating): 80% | pest or weed control at 125 g/ha ([15]; 125 g ai/ha, 0 to 100 scale (0 no effect, 100 complete control), read-out: Plant response rating, Pigweed): 80% | pest or weed control at 31 g/ha ([16]; 31 g ai/ha, 0 to 100 scale where 0 is no effect and 100 is complete control, read-out: Ryegrass, Italian plant response rating): 0% | pest or weed control at 125 g/ha ([16]; 125 g ai/ha, 0 to 100 scale (0 no effect, 100 complete control), read-out: Plant response rating, Ryegrass, Italian): 30% | pest or weed control at 31 g/ha ([17]; 31 g ai/ha, 0 to 100 scale where 0 is no effect and 100 is complete control, read-out: Foxtail, Giant plant response rating): 90% | pest or weed control at 125 g/ha ([17]; 125 g ai/ha, 0 to 100 scale (0 no effect, 100 complete control), read-out: Plant response rating, Foxtail, Giant): 90% | pest or weed control at 31 g/ha ([18]; 31 g ai/ha, 0 to 100 scale where 0 is no effect and 100 is complete control, read-out: Barnyardgrass plant response rating): 90% | pest or weed control at 125 g/ha ([18]; 125 g ai/ha, 0 to 100 scale (0 no effect, 100 complete control), read-out: Plant response rating, Barnyardgrass): 90%
